Data from patent US9308239B2, “Methods and compositions for treatment of retinoid-responsive conditions” (The Penn State Research Foundation, priority 2008, dated 2016).
Values joined by “and” are separate entries in the source; they are usually repeats but may differ in a detail not shown here. Equal values may be shown once.

Assays:
[1] = system: NGAL; assay: Western blot of NGAL protein in SEB-1 sebocytes after retinoid treatment; assay type: cell-based, human; settings: 72 hours, 0.1 nM to 1 μM, maximum with micromolar concentrations
Text: For Western blotting, mouse monoclonal antibody to lipocalin 2 (NGAL) was obtained from Abeam, Inc., (Cambridge, Mass.). The 24p3R(NGAL receptor) affinity purified antibody, positive (HEK 293 cell lysate) and negative (T47D cell lysate) controls were kindly provided by Dr. Michael Green (University of Massachusetts Medical School). GAPDH (#2118), Cleaved caspase 3 (#9664), β-actin (#4967) and anti-rabbit horseradish peroxidase (HRP) linked secondary antibodies (#7074) were purchased from Cell Signaling Technology (Beverly, Mass.). Secondary Anti-mouse HRP antibody was purchased from Santa Cruz Biotechnology Inc. (Santa Cruz, Calif.).
SEB-1 sebocytes (passages 22-28) were in standard culture medium until 50-75% confluent. Treatments of 13-cis RA (0.1 nM, 1 nM, 10 nM, 0.1 μM, or 1 μM) or ethanol vehicle (0.01% or less) were applied for 48 or 72 hours. In parallel studies, identical concentrations of all-trans retinoic acid (ATRA) were applied for 72 hours. In all experiments, each plate was considered an independent sample and total protein was collected. Blots were incubated with appropriate primary and secondary antibodies followed by densitometry. […] Data was analyzed using a paired t-test and results were considered significant if p<0.05.
Protein expression was verified by western blot at 72 hours of retinoid treatment. […] Blots were analyzed by densitometry and normalized to β-actin. […]

[2] = system: sebaceous glands; assay: Histology: sebaceous gland area in patient skin biopsies (H&E, image analysis); assay type: in vivo, human; settings: one week samples, mean±SEM; baseline 0.23±0.09; not significant (p=0.16)
[3] = system: LCN2 mRNA; assay: QPCR of LCN2 mRNA in SEB-1 sebocytes after retinoid treatment; assay type: cell-based, human; settings: 48 hours
Protocol: Applied Biosystems' Assays-on-Demand Taqman Universal PCR Master Mix, primer/probe sets, and ABI's 7900HT Fast Real-Time PCR System with 384-well plate block module were used according to manufacturer's instructions (Applied Biosystems, Foster City, Calif.). Integrity of isolated RNA was verified by agarose gel electrophoresis. cDNA was generated from 1 μg of total RNA, primed with oligo-dT, using the Superscript First-Strand Synthesis System for RT-PCR (Invitrogen, Carlsbad, Calif.). Diluted cDNA from the one week samples were run for the reference gene TATA binding protein (TBP) and genes of interest: lipocalin 2, (LCN2) RARRES1, S100A7, SERPINA3 and PLA2G7. For gene array verification, 8 independent samples of SEB-1 sebocytes treated with 0.1 μM 13-cis RA or vehicle alone for 72 hours were analyzed. Genes of interest included: LCN2, RARRES1, insulin-like growth factor binding protein 3 (IGFBP-3), GATA3, ZBTB16 and potential LCN2 cell surface receptor (SLC22A17). Expression of TBP, GAPDH and LCN2 was analyzed in 6 independent SEB-1 samples for the siRNA knockdown experiments. SEB-1 sebocytes treated with increasing concentrations of ATRA (n=5) were analyzed for the reference gene, TBP, and LCN2. […] Data was analyzed using the Relative Expression Software Tool (REST-XL version 1) software program (64) with efficiency correction and a p-value <0.05 was considered significant. […]

[4] = system: NGAL; assay: NGAL immunohistochemistry on patient skin sections; assay type: in vivo, human; settings: individual patients 1-6 and average, after one week isotretinoin therapy
Protocol: All sections were counterstained with hematoxylin. […] NC-negative control, consists of a normal human skin incubated with normal mouse IgG1 antibody.

[5] = system: sebaceous glands; assay: TUNEL-peroxidase assay on patient skin biopsies; assay type: in vivo, human
[6] = system: NGAL; assay: Immunoblot for NGAL in SEB-1 sebocytes after poly (I:C); assay type: cell-based, human; settings: SEB-1, 20 μg/mL, 48 hrs
[7] = system: P. acnes bacteria; assay: P. acnes percent survival after rhNGAL treatment; settings: 1-25 μg/mL, 4 hours, percent survival relative to vehicle
[8] = system: SEB-1 sebocytes; assay: TUNEL assay in SEB-1 sebocytes; assay type: cell-based, human; settings: 24 hours, 1 ng/mL

## CC1=C(/C=C/C(C)=C/C=C/C(C)=C/C(=O)O)C(C)(C)CCC1 [ATRA, all-trans retinoic acid]
[1]
  NGAL protein expression increase compared to control (maximum): 7 fold

## CC1=C(/C=C/C(C)=C/C=C/C(C)=C\C(=O)O)C(C)(C)CCC1 [isotretinoin, 13-cis retinoic acid]
[2]
  mean area of sebaceous glands: 0.12±0.02 mm^2
[3]
  concentrations that significantly increased LCN2 mRNA levels: ≥ 1 nM
[3]; micromolar concentrations
  increase of LCN2 mRNA levels compared to control: approximately 6 fold
[4]
  1-week (% of sebaceous gland positive for NGAL): 27.1% and 1.1% and 12.1% and 1.0% and 36.7% and 11.3%
[5]; one week of therapy compared to baseline
  increase in the percentage of TUNEL positive cells vs baseline: 4 fold
[5]; one week of therapy, mean±SD, n=6 patients, baseline 13.9±6%, p=0.005
  percentage of TUNEL positive cells within the sebaceous gland: 45.9±11.9%

## Polyinosinic:polycytidylic acid [Poly (I:C)]
[6]
  NGAL expression in total cell lysate: increases

B1: rhNGAL: purified recombinant human NGAL protein (amino acids 21-198, R&D Systems); in Example 14 rhNGAL produced in E. coli (protein)
chain: QDSTSDLIPAPPLSKVPLQQNFQDNQFQGKWYVVGLAGNAILREDKDPQKMYATIYELKEDKSYNVTSVLFRKKKCDYWIRTFVPGCQPGEFTLGNIKSYPGLTSYLVRVVSTNYNQHAMVFFKKVSQNREYFKITLYGRTKELTSELKENFIRFSKSLGLPENHIVFPVPIDQCIDG
modifications: human
[7]
  effect on P. acnes bacteria (FIG. 11): inhibitory effects
[8]
  percentage of TUNEL positive cells (maximum): approximately 35%
